Measurements published in US20120095032A1, “METHODS FOR TREATING LEUKEMIA AND MYELODYSPLASTIC SYNDROME, AND METHODS FOR IDENTIFYING AGENTS FOR TREATING SAME” (Sanford-Burnham Medical Research Institute, priority 2007, published 2012).
Where a name gives a salt, the structure may show the parent alone.

What was measured:
HePTP [1] = target: T1, HePTP (Homo sapiens, UniProt P35236); test: HePTP HTS primary screen (colorimetric pNPP / Biomol Green); format: biochemical; conditions: 20 μM compound; for inhibition at 20 µM: read-out: % Inhib. at 20 μM
T1 sequence (P35236 1-360): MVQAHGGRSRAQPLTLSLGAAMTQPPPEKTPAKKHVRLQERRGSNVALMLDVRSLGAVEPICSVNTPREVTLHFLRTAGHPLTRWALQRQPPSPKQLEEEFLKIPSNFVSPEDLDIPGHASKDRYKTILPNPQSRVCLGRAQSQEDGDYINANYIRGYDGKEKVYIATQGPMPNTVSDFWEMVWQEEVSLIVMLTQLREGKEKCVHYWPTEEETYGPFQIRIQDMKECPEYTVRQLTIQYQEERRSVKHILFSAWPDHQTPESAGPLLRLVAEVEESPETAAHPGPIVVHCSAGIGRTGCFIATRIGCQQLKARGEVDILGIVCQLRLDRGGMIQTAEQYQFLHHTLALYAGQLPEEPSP
Text: (§1) The following assay can be conducted manually or can be carried out by a robotic station.
For this assay, HePTP catalyzes the following reaction:
wherein p-nitrophenyl phosphate serves as a substrate and is cleaved to form p-nitrophenol and phosphate. The liberated phosphate complexes with the Biomol Green™ reagent to provide a quantitative colorimetric value for the amount of substrate cleaved.
(§2) Compounds are then serially diluted in 100% DMSO, and then diluted with water to 10% final DMSO concentration.
(§3) The primary screening actives can then proceed to the dose-response confirmation stage.

HePTP [2] = target: T1, HePTP; test: HePTP dose-response confirmation screening; format: biochemical; conditions: for IC50: 10 concentrations, 2-fold serial dilution, pNPP substrate; for n / nH (Hill coefficient): Hill coefficient of the dose-response curve
Text: as §1, §2, §3
* n represents the Hill coefficient. This coefficient is derived from the Hill equation which has the formula: […]
wherein θ is the fraction of ligand binding sites filled, L is the inhibitor concentration, Ka is the inhibitor concentration producing half occupation of the ligand binding sites, and n is the Hill coefficient.

| Compound | inhibition at 20 µM (HePTP [1]) [%] | IC50 (HePTP [2]) [µM] | n / nH (Hill coefficient) (HePTP [2]) | % Inhib. at 20 μM (HePTP [1]) [%] |
| --- | --- | --- | --- | --- |
| O=C(c1ccc(=O)oc1)N1CCOCC1 | 54.1 | 0.99 | 1.02 | – |
| CCn1c(SC(C)C(=O)O)nc2c(c1=O)C1=C(CCC1)C2 (centres unmarked) | 86 | 1.69 | 3.77 | – |
| CCn1c(SCC(=O)O)nc2c(c1=O)C1=C(CCC1)C2 | 102 | 1.29 | 4.48 | – |
| N#Cc1c(N2CCCC2)nc(N)c2c(N)nc(N3CCCC3)cc12 [1,8-Diamino-3,6-dipyrrolidin-1-yl-2,7-naphthyridine-4-carbonitrile] | 61.3 | 6.96 | 0.99 | – |
| O=C1CC(=O)N(Cc2ccco2)C(=O)N1 [1-(2-Furylmethyl)-1,3-diazinane-2,4,6-trione] | 84.9 | 1.31 | 1.67 | – |
| O=C(O)C(O)c1ccco1 (centres unmarked) [2-(2-Furyl)-2-hydroxy-acetic acid] | 100 | 2.3 | 1.79 | – |
| Cc1ccc(C)n1-c1cccc(C(=O)O)c1 [3-(2,5-Dimethylpyrrol-1-yl)benzoic acid] | 102 | 1.3 | 2.59 | – |
| O=C(CCS(=O)(=O)c1ccc(Br)cc1)NCc1cccs1 [3-(4-Bromophenyl)sulfonyl-N-(thiophen-2-ylmethyl)propanamide] | 103 | 68.3 | 1.24 | – |
| O=C(O)c1cccc(-n2cccc2/C=N/O)c1 [3-[2-(Hydroxyiminomethyl)pyrrol-1-yl]benzoic acid] | 58.1 | 1.4 | 1.45 | – |
| CC1(C)CCCN(C(=O)c2coc(=O)c(Br)c2)C1 [3-bromo-5-(3,3-dimethylpiperidine-1-carbonyl)pyran-2-one] | 102 | 0.4 | 2.66 | – |
| COc1cccc(C(=O)NC2CC3CCCC(C2)N3CC(=O)Nc2ccccc2)c1 (centres unmarked) [3-methoxy-N-[9-(phenylcarbamoylmethyl)-9-azabicyclo[3.3.1]non-7-yl]benzamide hydrochloride] | 103 | 4.67 | 4.22 | – |
| O=C(O)c1cc(O)c2c(c1)C(=O)c1cccc(O)c1C2=O [4,5-Dihydroxy-9,10-dioxo-anthracene-2-carboxylic acid] | 64.2 | 19.6 | 0.76 | – |
| Cc1cc(C(=O)O)ccc1-n1c(C)ccc1C [4-(2,5-Dimethylpyrrol-1-yl)-3-methyl-benzoic acid] | 103 | 0.7 | 2.09 | – |
| O=C1Nc2ccccc2SC(c2ccccc2)C1O (centres unmarked) [4-Hydroxy-3-phenyl-2-thia-6-azabicyclo[5.4.0]undeca-7,9,11-trien-5-one] | 67.2 | 1.15 | 2.13 | – |
| O=C(O)CCC(=O)N1CCc2cc(S(=O)(=O)N3CCN(c4ccc(F)cc4)CC3)ccc21 [4-[5-[4-(4-Fluorophenyl)piperazin-1-yl]sulfonyl-2,3-dihydroindol-1-yl]-4-oxo-butanoic acid] | 58.8 | 3.77 | 7.72 | – |

Second part, the molecule after the results:

| inhibition at 20 µM (HePTP [1]) [%] | IC50 (HePTP [2]) [µM] | n / nH (Hill coefficient) (HePTP [2]) | % Inhib. at 20 μM (HePTP [1]) [%] | Compound |
| --- | --- | --- | --- | --- |
| 102 | 1.79 | 7.56 | – | O=C(O)c1ccccc1-c1ccc(/C=c2\sc3nc4cc(Br)cnc4n3c2=O)o1 |
| 79.4 | 15.1 | 1.27 | – | CCC1=NC2Sc3ccccc3C(=O)C2C(=O)N1Cc1ccco1 (centres unmarked) |
| 62.5 | 0.41 | 2.28 | – | CSc1nc(N(CCO)CCO)c2sc3nc(-c4ccco4)c4c(c3c2n1)CCC4 |
| 104 | 6.86 | 2.17 | – | COc1ccc(Cn2c(C)nc3c(c2=O)c2nc4ccccc4nc2n3Cc2ccco2)cc1 |
| 99.2 | 2.18 | 2.73 | – | COc1ccc2c(c1)=CC(=C1N=C(c3ccc(F)cc3)ON1)C(=O)N=2 (stereo in doubt) [(3Z)-3-[5-(4-fluorophenyl)-1,2,4-oxadiazol-3-ylidene]-6-methoxy-quinolin-2-one] |
| 77.1 | 4.23 | 4.29 | – | COc1ccc2c(c1)=CC(=C1N=C(c3ccccc3)ON1)C(=O)N=2 (stereo in doubt) [(3Z)-6-methoxy-3-(5-phenyl-1,2,4-oxadiazol-3-ylidene)quinolin-2-one] |
| 74.1 | 1.14 | 2.26 | – | c1coc(-c2nc(-c3ccco3)c(-c3ccco3)nc2-c2ccco2)c1 [2,3,5,6-tetrakis(2-furyl)pyrazine] |
| 93.1 | 1.17 | 2.23 | – | Cc1c(N2C(=O)c3ccc4c5c(ccc(c35)C2=O)CC4)c(=O)n(-c2ccccc2)n1C [2-(1,5-Dimethyl-3-oxo-2-phenyl-2,3-dihydro-1H-pyrazol-4-yl)-6,7-dihydro-1H-indeno[6,7,1-def]isoquinoline-1,3(2H)-dione] |
| 102 | 0.42 | – | – | Cc1ccc(C)n1C(Cc1ccccc1)C(=O)O (centres unmarked) [2-(2,5-Dimethylpyrrol-1-yl)-3-phenyl-propanoic acid] |
| 53.9 | 2.74 | 1.32 | – | Cc1cccc(Nc2nn3c(=O)c4ccccc4nc3s2)c1 [2-(3-Methylphenylamino)-5H-[1,3,4]thiadiazolo[2,3-b]quinazolin-5-one] |
| 57.2 | 1.17 | 3.7 | – | COc1ccc(N2Cc3cccc(C(=O)O)c3C2=O)cc1 [2-(4-Methoxyphenyl)-3-oxo-1H-isoindole-4-carboxylic acid] |
| 50.7 | 4.97 | 2.07 | – | O=C(COC(=O)c1cccc(S(=O)(=O)N2CCN(c3ccccc3)CC2)c1)NCc1ccco1 [2-Furylmethylcarbamoylmethyl 3-(4-phenylpiperazin-1-yl)sulfonylbenzoate] |
| 53.9 | 2.74 | 1.32 | – | c1ccc(CSc2nnc(-c3ccco3)c(-c3ccco3)n2)cc1 [3-Benzylsulfanyl-5,6-bis(2-furyl)-1,2,4-triazine] |
| 95.3 | 0.42 | 2.5 | – | COc1ccc(Br)cc1/C=c1\sc2nc(-c3ccco3)nn2c1=O [3-[(5-Bromo-2-methoxy-phenyl)methylidene]-7-(2-furyl)-4-thia-1,6,8-triazabicyclo[3.3.0]octa-5,7-dien-2-one] |
| – | 10.6 | 4.06 | 97.5 | NC(=O)c1c(NC(=O)CSc2nnc(-c3ccco3)n2-c2ccccc2)sc2c1CCC2 [3-[[2-[[5-(2-furyl)-4-phenyl-1,2,4-triazol-3 - yl]sulfanyl]acetyl]amino]-4-thiabicyclo[3.3.0]octa-2,9-diene-2-carboxamide] |
| 50.5 | 21.6 | 2.83 | – | Cc1cc(C)n(-c2nc(Nc3ccccc3)nc(-n3nc(C)cc3C)n2)n1 [4,6-bis(3,5-Dimethylpyrazol-1-yl)-N-phenyl-1,3,5-triazin-2-amine] |
| 64.3 | 78.4 | 2.71 | – | CN(C)c1ccc(-c2nn3c(-c4ccc(Cl)cc4Cl)nnc3s2)cc1 [4-[2-(2,4-Dichlorophenyl)-6-thia-1,3,4,8-tetrazabicyclo[3.3.0]octa-2,4,7-trien-7-yl]-N,N-dimethyl-aniline] |
| 92.4 | 2.12 | 1.3 | – | Cc1ccc(-c2nn3c(C)nnc3s2)cc1NC(=O)c1ccc(-c2ccc(Cl)cc2Cl)o1 [5-(2,4-Dichlorophenyl)-N-[2-methyl-5-(2-methyl-6-thia-1,3,4,8-tetrazabicyclo[3.3.0]octa-2,4,7-trien-7-yl)phenyl]furan-2-carboxamide] |
| 102 | 1.5 | 1.94 | – | Cc1nnc2sc(-c3ccc(NC(=O)c4ccc(-c5ccc(Cl)cc5Cl)o4)cc3)nn12 [5-(2,4-Dichlorophenyl)-N-[4-(2-methyl-6-thia-1,3,4,8-tetrazabicyclo[3.3.0]octa-2,4,7-trien-7-yl)phenyl]furan-2-carboxamide] |
| 59.4 | 5.95 | 2.08 | – | O=C1CCCC2=C1C(c1ccco1)Nc1ccc3ccccc3c12 (centres unmarked) [5-(Furan-2-yl)-2,3,5,6-tetrahydrobenzo[a]phenantridin-4(1H)-one] |
| 102 | 4.9 | 1.47 | – | COc1ccc(Br)cc1C(=O)Nc1cccc(-c2nnc(-c3ccco3)o2)c1 [5-Bromo-N-[3-[5-(2-furyl)-1,3,4-oxadiazol-2-yl]phenyl]-2-methoxy-benzamide] |
